From US8609715B2, “Heteroarylcarboxylic acid ester derivative” (Ajinomoto Co., Inc., priority 2009, dated 2013) come the findings set out here.

Where a name gives a salt, the structure may show the parent alone.

recombinant human enteropeptidase, sequence (P98073 whole entry): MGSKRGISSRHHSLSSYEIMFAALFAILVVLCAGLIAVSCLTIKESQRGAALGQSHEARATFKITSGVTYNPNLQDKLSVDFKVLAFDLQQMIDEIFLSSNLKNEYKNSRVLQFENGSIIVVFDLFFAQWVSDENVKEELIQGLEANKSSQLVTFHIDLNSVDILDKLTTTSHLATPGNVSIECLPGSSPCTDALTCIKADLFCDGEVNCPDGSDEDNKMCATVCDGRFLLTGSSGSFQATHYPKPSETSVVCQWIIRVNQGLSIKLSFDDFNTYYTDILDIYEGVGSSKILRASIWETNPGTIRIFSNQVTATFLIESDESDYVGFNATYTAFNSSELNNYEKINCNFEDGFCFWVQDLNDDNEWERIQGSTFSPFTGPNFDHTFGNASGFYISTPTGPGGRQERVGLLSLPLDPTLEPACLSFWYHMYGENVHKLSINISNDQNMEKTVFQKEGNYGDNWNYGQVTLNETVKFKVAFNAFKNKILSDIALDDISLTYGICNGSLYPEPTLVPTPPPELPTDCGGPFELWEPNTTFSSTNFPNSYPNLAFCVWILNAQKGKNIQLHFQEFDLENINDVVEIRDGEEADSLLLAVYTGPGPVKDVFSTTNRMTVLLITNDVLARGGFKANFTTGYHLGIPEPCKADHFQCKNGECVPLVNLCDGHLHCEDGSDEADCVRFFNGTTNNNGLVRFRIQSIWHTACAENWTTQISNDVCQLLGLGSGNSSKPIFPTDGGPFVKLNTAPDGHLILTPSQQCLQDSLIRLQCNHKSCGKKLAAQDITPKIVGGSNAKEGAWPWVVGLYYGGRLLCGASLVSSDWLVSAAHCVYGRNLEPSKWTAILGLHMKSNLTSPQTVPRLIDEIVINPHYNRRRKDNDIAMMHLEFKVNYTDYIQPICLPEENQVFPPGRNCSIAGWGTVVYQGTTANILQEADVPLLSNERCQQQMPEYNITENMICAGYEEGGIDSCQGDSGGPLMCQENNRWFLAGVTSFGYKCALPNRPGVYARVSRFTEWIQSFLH

The experiment has as its target recombinant human enteropeptidase (Homo sapiens (Human), UniProt P98073). In words: Measurement of enteropeptidase inhibitory activity. The class given is biochemical. The following applies: Dixon plot. On the procedure: Measurement of Enteropeptidase Inhibitory Activity
Using a 96 well plate (#3915, Costar), a test compound (25 μL), 400 mM Tris-HCl buffer (pH 8.0, 25 μL) and 0.5 mg/mL fluorescence enzyme substrate (Gly-Asp-Asp-Asp-Asp-Lys-β-Naphtylamide, 25 μL) were mixed, and recombinant human enteropeptidase (R&D Systems, Inc., 25 μL) was added. Using a fluorescence plate reader fmax (Molecular Devices, Inc.), the reaction rate was measured from the time-course changes at excitation wavelength 320 nm and fluorescence wavelength 405 nm. The Ki value was calculated from the concentration of the test compound, reciprocal of reaction rate, and Km value of the enzyme substrate, and by using Dixon plot.
Take `CCC(Cc1ccc(C(=O)Oc2ccc(C(=N)N)cc2)o1)C(=O)O` (centres unmarked) [Compound A-29, 3-[5-(4-amidinophenoxycarbonyl)furan-2-yl]-2-ethylpropionic acid trifluoroacetic acid salt]: the Ki was found to be 0.82 nM.
As for `CC[C@H](Cc1ccc(C(=O)Oc2ccc(C(=N)N)cc2)o1)C(=O)N[C@H](CCC(=O)O)C(=O)O` [Compound A-30], the inhibition constant Ki is 1.03 nM.
As to `CCC(Cc1ccc(C(=O)Oc2ccc(C(=N)N)cc2)o1)C(=O)N[C@H](CC(=O)O)C(=O)O` (some centres unmarked) [Compound A-31], the Ki amounted to 0.5 nM.
`N=C(N)c1ccc(OC(=O)c2ccc(CC(=O)O)o2)cc1` [Compound A-32, 5-(4-amidinophenoxycarbonyl)furan-2-ylacetic acid trifluoroacetic acid salt]: the Ki came out at 0.62 nM.
The same measure for `CC(Cc1ccc(C(=O)Oc2ccc(C(=N)N)cc2F)o1)C(=O)O` (centres unmarked) [Compound A-33]: 0.65 nM.
Take `CCCC(Cc1ccc(C(=O)Oc2ccc(C(=N)N)cc2)o1)C(=O)O` (centres unmarked) [Compound A-34]: the Ki stood at 0.98 nM.
With `CC(Cc1ccc(C(=O)Oc2ccc(C(=N)N)cc2F)o1)C(=O)N[C@H](CC(=O)O)C(=O)O` (some centres unmarked) [Compound A-35, N-{3-[5-(4-amidino-2-fluorophenoxycarbonyl)furan-2-yl]-2-methylpropanoyl}-N-(D)-aspartic acid trifluoroacetic acid salt], the Ki worked out at 0.25 nM.
The same measure for `CC(Cc1ccc(C(=O)Oc2ccc(C(=N)N)cc2)o1)S(=O)(=O)O` (centres unmarked) [Compound A-36, 1-[5-(4-amidinophenoxycarbonyl)furan-2-yl]propane-2-sulfonic acid trifluoroacetic acid salt]: 0.58 nM; for `N=C(N)c1ccc(OC(=O)c2ccc(CCC(=O)O)o2)cc1` [Compound A-37]: 0.64 nM; for `N=C(N)c1ccc(OC(=O)c2ccc(CCC(=O)N[C@@H](CC(=O)O)C(=O)O)o2)cc1` [Compound A-38]: 0.57 nM.
As to `N=C(N)c1ccc(OC(=O)c2ccc(CC(=O)N[C@@H](CC(=O)O)C(=O)O)o2)cc1` [Compound A-39, N-[5-(4-amidinophenoxycarbonyl)furan-2-ylacetyl]-(L)-aspartic acid trifluoroacetic acid salt], the Ki is 0.67 nM.
With `C[C@H](Cc1ccc(C(=O)Oc2ccc(C(=N)N)cc2)o1)C(=O)O` [Compound A-41, 3-[5-(4-amidinophenoxycarbonyl)furan-2-yl]-2S-methylpropionic acid trifluoroacetic acid salt], the Ki came to 0.5 nM.
As for `C[C@@H](Cc1ccc(C(=O)Oc2ccc(C(=N)N)cc2)o1)C(=O)N[C@@H](CC(=O)O)C(=O)O` [Compound A-43, N-{3-[5-(4-amidinophenoxycarbonyl)-furan-2-yl]-2S-methylpropionyl}-L-aspartic acid trifluoroacetic acid salt], the Ki turned out to be 0.4 nM.
`C[C@H](Cc1ccc(C(=O)Oc2ccc(C(=N)N)cc2)o1)C(=O)N[C@@H](CC(=O)O)C(=O)O` [Compound A-44, N-[3-[5-(4-amidinophenoxycarbonyl)-furan-2-yl]-2R-methylpropionyl]-L-aspartic acid trifluoroacetic acid salt]: the inhibition constant Ki was 0.33 nM.
The same measure for `C[C@@H](Cc1ccc(C(=O)Oc2ccc(C(=N)N)cc2)o1)C(=O)N[C@H](CC(=O)O)C(=O)O` [Compound A-45, N-{3-[5-(4-amidinophenoxycarbonyl)-furan-2-yl]-2S-methylpropionyl}-D-aspartic acid trifluoroacetic acid salt]: 0.46 nM; for `C[C@H](Cc1ccc(C(=O)Oc2ccc(C(=N)N)cc2)o1)C(=O)N[C@H](CC(=O)O)C(=O)O` [Compound A-46, N-{3-[5-(4-amidinophenoxycarbonyl)-furan-2-yl]-2R-methylpropionyl}-D-aspartic acid trifluoroacetic acid salt]: 0.35 nM; for `CC(Cc1ccc(C(=O)Oc2ccc(C(=N)N)cc2)o1)C(=O)NCCc1ccccc1` (centres unmarked) [Compound A-47, 5-{2-methyl-2-[(2-phenylethyl)-carbamoyl]ethyl}furan-2-carboxylic acid 4-amidinophenyl ester trifluoroacetic acid salt]: 1.9 nM.
For the molecule `CC(C)CCNC(=O)C(C)Cc1ccc(C(=O)Oc2ccc(C(=N)N)cc2)o1` (centres unmarked) [Compound A-48], the Ki was 1.3 nM.
For `CC(Cc1ccc(C(=O)Oc2ccc(C(=N)N)cc2)o1)C(=O)NCCN(C)C` (centres unmarked) [Compound A-49], the Ki was 7.6 nM.
With `CC(Cc1ccc(C(=O)Oc2ccc(C(=N)N)cc2)o1)C(=O)NCCO` (centres unmarked) [Compound A-50], the Ki worked out at 4.4 nM.
The same measure for `CC(Cc1ccc(C(=O)Oc2ccc(C(=N)N)cc2)o1)C(=O)N1CCCC1` (centres unmarked) [Compound A-51]: 4.9 nM; for `CC(Cc1ccc(C(=O)Oc2ccc(C(=N)N)cc2)o1)C(=O)N1CCCC(C(=O)O)C1` (centres unmarked) [Compound A-52, N-{3-[5-(4-amidinophenoxycarbonyl)-furan-2-yl]-2-methylpropanoyl}nipecotic acid trifluoroacetic acid salt]: 2.5 nM.
As to `C=CCN(CC(=O)O)C(=O)CCc1ccc(C(=O)Oc2ccc(C(=N)N)cc2)o1` [Compound A-55, N-{3-[5-(4-amidinophenoxycarbonyl)-furan-2-yl]-propionyl}-N-allylglycine trifluoroacetic acid salt], the Ki was 1.3 nM.
Regarding `CC(Cc1ccc(C(=O)Oc2ccc(C(=N)N)cc2)o1)C(=O)NCP(=O)(O)O` (centres unmarked) [Compound A-56], the inhibition constant (Ki) turned out to be 1.1 nM.
Consider `CC(Cc1ccc(C(=O)Oc2ccc(C(=N)N)cc2)o1)C(=O)N[C@@H](CS(=O)(=O)O)C(=O)O` (some centres unmarked) [Compound A-57], for which the Ki was found to be 0.39 nM.
On to `CC(CCC(=O)O)Cc1ccc(C(=O)Oc2ccc(C(=N)N)cc2)o1` (centres unmarked) [Compound A-58, 5-[5-(4-amidinophenoxycarbonyl)furan-2-yl]-4-methylpentanoic acid trifluoroacetic acid salt], for which the Ki worked out at 0.7 nM.
`CC(CCC(=O)N[C@@H](CC(=O)O)C(=O)O)Cc1ccc(C(=O)Oc2ccc(C(=N)N)cc2)o1` (stereo partly drawn) [Compound A-59, N-{5-[5-(4-amidinophenoxycarbonyl)furan-2-yl]-4-methylpentanoyl}-L-aspartic acid trifluoroacetic acid salt]: the Ki was 0.35 nM.
For the molecule `N=C(N)c1ccc(OC(=O)c2ccc(CC(CCC(=O)O)C(=O)O)o2)cc1` (centres unmarked) [Compound A-60, 5-[5-(4-amidinophenoxycarbonyl)furan-2-yl]-4-carboxypentanoic acid trifluoroacetic acid salt], the inhibition constant Ki stood at 0.31 nM.
Take `N=C(N)c1ccc(OC(=O)c2ccc(CC(CCC(=O)O)C(=O)N[C@@H](CC(=O)O)C(=O)O)o2)cc1` (stereo partly drawn) [Compound A-61, N-{3-[5-(4-amidinophenoxycarbonyl)-furan-2-yl]-2-(carboxyethyl)propanoyl}-L-aspartic acid trifluoroacetic acid salt]: the Ki came to 0.42 nM.
The same measure for `CC(Cc1cc(C(=O)Oc2ccc(C(=N)N)cc2)co1)C(=O)N[C@@H](CC(=O)O)C(=O)O` (stereo partly drawn) [Compound A-62, N-{3-[4-(4-amidinophenoxycarbonyl)-furan-2-yl]-2-methylpropanoyl}-L-aspartic acid trifluoroacetic acid salt]: 2.1 nM; for `CC(Cc1cc(C(=O)Oc2ccc(C(=N)N)cc2F)co1)C(=O)O` (centres unmarked) [Compound A-63, 3-[4-(4-amidino-2-fluorophenoxycarbonyl)furan-2-yl]-2-methylpropanoic acid trifluoroacetic acid salt]: 0.53 nM.
In the case of `CC(Cc1cc(C(=O)Oc2ccc(C(=N)N)cc2)co1)C(=O)NCP(=O)(O)O` (centres unmarked) [Compound A-64], the Ki is 2.5 nM.
For the molecule `CC(Cc1cc(C(=O)Oc2ccc(C(=N)N)cc2)co1)C(=O)N[C@@H](CS(=O)(=O)O)C(=O)O` (some centres unmarked) [Compound A-65], the Ki is 1 nM.
`CC(Cc1cc(C(=O)Oc2ccc(C(=N)N)cc2F)co1)C(=O)N[C@@H](CC(=O)O)C(=O)O` (some centres unmarked) [Compound A-66]: the Ki stood at 0.32 nM.
`CC(Cc1coc(C(=O)Oc2ccc(C(=N)N)cc2)c1)C(=O)N[C@@H](CC(=O)O)C(=O)O` (stereo partly drawn) [Compound A-67, N-[3-[2-(4-amidinophenoxycarbonyl)-furan-4-yl]-2-methylpropanoyl]-L-aspartic acid trifluoroacetic acid salt]: the inhibition constant Ki amounted to 0.52 nM.
The same measure for `N=C(N)c1ccc(OC(=O)c2ccc(-c3ccc(C(=O)N[C@@H](CC(=O)O)C(=O)O)cc3)o2)cc1` [Compound A-68, N-{4-[5-(4-amidinophenoxycarbonyl)-furan-2-yl]benzoyl}-L-aspartic acid trifluoroacetic acid salt]: 2.2 nM; for `N=C(N)c1ccc(OC(=O)c2ccc(-c3ccc(C(=O)NCC(=O)O)cc3)o2)cc1` [Compound A-69]: 4.7 nM; for `N=C(N)c1ccc(OC(=O)c2ccc(-c3ccc(C(=O)NCP(=O)(O)O)cc3)o2)cc1` [Compound A-70]: 2.7 nM.
With `N=C(N)c1ccc(OC(=O)c2ccc(-c3cccc(C(=O)N[C@@H](CC(=O)O)C(=O)O)c3)o2)cc1` [Compound A-71, N-{3-[5-(4-amidinophenoxycarbonyl)-furan-2-yl]benzoyl}-L-aspartic acid trifluoroacetic acid salt], the Ki came to 1.6 nM.
For `CC(Cc1ccc(C(=O)Oc2ccc(C(=N)N)cc2)o1)C(=O)SC(CC(=O)O)C(=O)O` (stereo not drawn) [Compound A-73, S-{3-[5-(4-amidinophenoxycarbonyl)-furan-2-yl]-2-methylpropionyl}thiomalic acid trifluoroacetic acid salt], the inhibition constant Ki is 0.88 nM.
As to `CC(Cc1ccc(C(=O)Oc2ccc(C(=N)N)cc2)o1)C(=O)NN(CC(=O)O)CC(=O)O` (centres unmarked) [Compound A-74, (N′-carboxymethyl-{3-[5-(4-amidinophenoxycarbonyl)furan-2-yl]-2-methylpropane}hydrazido)-acetic acid trifluoroacetic acid salt], the inhibitory constant (Ki) worked out at 2.6 nM.
